{"source": "patent US5571687A", "about": "“Modulators of multidrug resistance transporters” (Duke University, priority 1994, dated 1996)", "key": {"[1]": {"biological_target": "P-glycoprotein (human MDR1 expressed in Sf9 cells) (Homo sapiens, UniProt P08183, G185V)", "test": "P-gp-associated ATPase activity (vanadate-sensitive release of inorganic phosphate from ATP), stimulation, membranes of Sf9 cells expressing human MDR1", "description": "(§1) physiologic and non-physiologic compounds, including prenylcysteines and analogs thereof, can be tested in vitro for their ability to serve as P-gp substrates (and thus modulators of MDR transporter activity), both in terms of stimulating the intrinsic ATPase activity of the transporter and competing for drug binding. Insect cells (eg Sf9 cells) infected with baculovirus containing MDR1 cDNA (available from the American Type Culture Collection, Rockville, Md.) can be used as a source of membranes suitable for use in such in vitro screens. Membranes from drug-induced resistant cells can also be used (eg, MCF7-MDR breast cancer cells). Details of an appropriate protocol for testing compounds for their ability to stimulate P-gp-associated ATPase are given in the Examples. The method described involves incubating MDR transporter-containing membranes with the test compound and measuring the level of vanadate sensitive release of inorganic phosphate from ATP (see Sarkadi et al, J. Biol. Chem. 267:4854 (1992)).\nSf9 cells were grown in Grace's insect culture media supplemented with 10% fetal bovine serum (HyClone), 0.1% Pluronic F-68, 100 unit/ml penicillin and 100 μg/ml streptomycin. Sf9 cells were infected with baculovirus according to established procedures (O'Reilly et al, Baculovirus Expression Vectors--A Laboratory Manual, New York: W.H. Freeman & Co. (1992)). Recombinant baculovirus containing the human MDR1V185 cDNA (Germann et al, Biochemistry 29:2295 (1990)) was provided by Dr. M. Gottesman (MDR1 cDNAs are available from the American Type Culture Collection, Rockville, Md.). Mock-infection was carried out using recombinant baculovirus containing the cDNA encoding a protein prenyltransferase. […] These cells were grown in Iscove's Modified Dulbecco's Media (MDM) supplemented with 10% fetal bovine serum. The MCF7-MDR cells were exposed to 10 μM doxorubicin every 8-10 passages to maintain the drug-resistant phenotype.\nSf9 membranes were prepared from cells harvested 3 days after infection with specified baculovirus as described (Sarkadi et al, J. Biol. Chem. 267:4854 (1992)). MCF7 membranes from both wild-type and drug-resistant cell lines were prepared by nitrogen cavitation procedures (Cornwell et al, J. Biol. Chem. 261:7921 (1986)), flash-frozen in liquid nitrogen, and stored at -80° C. until use.\nP-gp-associated ATPase activity was measured by determining vanadate-sensitive release of inorganic phosphate from ATP as described (Sarkadi et al, J. Biol. Chem. 267:4854 (1992)). Sf9 membranes containing 5-10 μg protein were incubated in 100 μl of 50 mM Mes-Tris, pH 6.8, 50 mM KCl, 2 mM DTT, 2 mM EGTA, 1 mM ouabain, 5 mM sodium azide, 5 mM Mg/ATP. P-gp-associated ATPase activity in MCF7-MDR cells was measured using the same condition except that 50 mM Mes-Tris, pH 6.8 was replaced by 50 mM Tris-HCl, pH 7.5. […] Reactions were conducted at 37° C. for 20 min."}, "P-gp": {"biological_target": "P-gp (Homo sapiens, UniProt P08183, G185V)", "test": "Inhibition of basal and drug-stimulated P-gp ATPase activity", "type": "biochemical", "description": "FIG. 3. Ability of acetyl farnesyl methylester (AFCME) to block drug stimulated ATPase of MDR.\nFIG. 4. Interaction of prenylcysteine methylamides and prenylcysteine-containing dipeptides with P-gp. The compounds were purified by reversephase HPLC chromatography and analyzed for their ability to stimulate the ATPase activity of P-gp in Sf9 membranes and, in the case of AFCMA, to inhibit FCME-stimulated ATPase activity as described for AFCME in Example 4. Left panel--Stimulation of P-gp ATPase activity in Sf9 membranes. Increasing concentration of FCMA (.box-solid.), farnesylated γGlu-Cys (unmethylated F-dipeptide, Δ), and the methylated form of farnesylated γGlu-Cys (methylated F-dipeptide, .tangle-solidup.) were analyzed. Right panel AFCMA inhibition of P-gp ATPase activity in Sf9 membranes. Increasing concentrations of AFCMA were added to membranes from Sf9 cells expressing P-gp either with no added drug (.largecircle.) or along with 20 μM […] as an ATPase stimulator (.circle-solid.).\nThe ATPase assay can also be used to identify test compounds that inhibit P-gp activity, ie P-gp antagonists, which are also potential agents for reversing P-gp-mediated drug resistance. In this type of assay, the ability of a selected test compound to reduce P-gp-ATPase which has been stimulated by a drug known to elicit this activity (eg verapimil or farnesylcysteine methyl ester (FCME) is examined. Increasing concentrations of the selected test compound and a fixed amount of the stimulatory drug are mixed, added to the P-gp preparation, and ATPase activity determined. A dose-dependent inhibition of ATPase activity by the selected compound indicates an antagonist.\nReactions were conducted at 37° C. for 20 min."}, "[2]": {"biological_target": "native P-gp expressed in the drug-resistant human breast cancer cell line MCF7-MDR (Homo sapiens, UniProt P08183)", "settings": "mcf7-mdr membranes, 20 min", "description": "as §1, with “(1992)). […]” for “(1992)).”\nP-gp-associated ATPase activity was measured by determining vanadate-sensitive release of inorganic phosphate from ATP as described (Sarkadi et al, J. Biol. Chem. 267:4854 (1992)). […] P-gp-associated ATPase activity in MCF7-MDR cells was measured using the same condition except that 50 mM Mes-Tris, pH 6.8 was replaced by 50 mM Tris-HCl, pH 7.5. […]"}, "[3]": {"settings": "read-out: maximum stimulation of P-gp ATPase"}}, "note": "Like-named read-outs stand apart in the source and are kept apart here."}
{"smiles": "CC(C)=CCCC(C)=CCCC(C)=CCO", "note": "[FOH, Farnesol, reference compound]", "values": [{"measurement": "ATPase stimulation (in words)", "setting": "[1]", "value": "ineffective"}]}
{"smiles": "CC(C)=CCCC(C)=CCCC(C)=CCSC[C@H](NC(=O)CC[C@H](N)C(=O)O)C(=O)O", "note": "[F-γGlu- Cys]", "values": [{"measurement": "stimulation of P-gp ATPase activity (in words)", "setting": "[1]", "value": "stimulate P-gp ATPase activity in a methylation-dependent fashion"}]}
{"smiles": "COC(=O)[C@H](CSCC=C(C)CCC=C(C)CCC=C(C)C)NC(C)=O", "note": "[AFCME, N-acetyl-S-farnesylcysteine methyl ester]", "values": [{"measurement": "ATPase stimulation (in words)", "setting": "[1]", "value": "essentially abolished its stimulatory effect"}, {"measurement": "concentration at which the transporter's basal ATPase activity is inhibited", "setting": "P-gp; basal ATPase activity", "value": "> 20", "unit": "µM"}, {"measurement": "blocking of basal and drug (FCME, verapamil)-stimulated ATPase activity (in words)", "setting": "P-gp; dose-dependent, FIG. 3", "value": "can block both the basal and drug-stimulated ATPase activities of P-gp in a dose-dependent fashion"}, {"measurement": "inhibition of basal ATPase activity (in words)", "setting": "P-gp; higher concentrations (above 20 μM), preliminary analysis", "value": "marked inhibition of even the basal ATPase activity"}, {"measurement": "stimulation of ATPase activity at low concentrations (in words)", "setting": "P-gp; low (<20 μM) concentrations, preliminary analysis", "value": "weak stimulation of the ATPase activity"}]}
{"smiles": "CNC(=O)C(CSCC=C(C)CCC=C(C)CCC=C(C)C)NC(C)=O", "note": "(stereo not drawn) [AFCMA]", "values": [{"measurement": "inhibition of drug-stimulated P-gp ATPase activity (in words)", "setting": "P-gp; Sf9 membranes, FIG. 4 right panel", "value": "potent in stimulation (FCMA) and inhibition of drug-stimulated (AFCMA) P-gp ATPase activities"}]}
{"smiles": "COC(=O)[C@@H](N)CSC/C=C(\\C)CC/C=C(\\C)CCC=C(C)C", "note": "[FCME, S-farnesylcysteine methyl ester]", "values": [{"measurement": "concentration of maximum stimulation of P-gp ATPase", "setting": "[1]", "value": "10 to 20", "unit": "µM"}, {"measurement": "stimulation of P-gp ATPase activity (in words)", "setting": "[1]", "value": "stimulated this activity in a fashion very similar to that of verapamil"}, {"measurement": "Emax", "setting": "[1]; read-out: Maximal stimulation of ATPase activity", "value": "~450", "unit": "%"}, {"measurement": "Emax", "setting": "[1]; [3]", "value": "400 to 500", "unit": "%"}, {"measurement": "increase of P-gp-catalyzed ATP hydrolysis", "setting": "[2]", "value": "~ 2.5 fold"}]}
{"smiles": "CC(=O)N[C@@H](CSCC=C(C)CCC=C(C)CCC=C(C)C)C(=O)O", "note": "[AFC, N-acetyl-S-farnesylcysteine]", "values": [{"measurement": "ATPase stimulation (in words)", "setting": "[1]", "value": "did not stimulate the transporter's ATPase activity"}]}
{"smiles": "CC(C)=CCC/C(C)=C/CC/C(C)=C/CC/C(C)=C/CSC[C@H](N)C(=O)O", "note": "[GGC, S-geranylgeranylcysteine]", "values": [{"measurement": "stimulation of P-gp ATPase activity (in words)", "setting": "[1]", "value": "ineffective in stimulating the ATPase of P-gp"}]}
{"smiles": "COC(=O)[C@@H](N)CSC/C=C(\\C)CC/C=C(\\C)CC/C=C(\\C)CCC=C(C)C", "note": "[GGCME, S-geranylgeranylcysteine methyl ester]", "values": [{"measurement": "concentration of maximum stimulation of P-gp ATPase", "setting": "[1]", "value": "10 to 20", "unit": "µM"}, {"measurement": "stimulation of P-gp ATPase activity (in words)", "setting": "[1]", "value": "stimulated this activity in a fashion very similar to that of verapamil"}, {"measurement": "Emax", "setting": "[1]; [3]", "value": "400 to 500", "unit": "%"}, {"measurement": "increase of P-gp-catalyzed ATP hydrolysis", "setting": "[2]", "value": "~ 2.5 fold"}]}
{"smiles": "CNC(=O)C(N)CSCC=C(C)CCC=C(C)CCC=C(C)C", "note": "(stereo not drawn) [FCMA]", "values": [{"measurement": "stimulation of P-gp ATPase activity (in words)", "setting": "[1]", "value": "potent in stimulation"}]}
{"smiles": "CC(C)=CCCC(C)=CCCC(C)=CCSC[C@H](N)C(=O)O", "note": "[FC, S-farnesylcysteine]", "values": [{"measurement": "stimulation of P-gp ATPase activity (in words)", "setting": "[1]", "value": "ineffective in stimulating the ATPase of P-gp"}]}
